Where “and” joins values, the source holds several entries; their conditions need not be identical. Identical values can stand only once. Inconclusive results and toxic doses are left out. Rule for the calls: active = survival T/C of 150% or more; inactive = T/C below 125% in these data.
System: B6C3F1 mice, intracerebral ependymoblastoma, median survival T/C
Assay: NCI In Vivo Anticancer Drug Screen. Data for tumor model Ependymoblastoma (intracerebral) in B6C3F1 mice
Conditions: endpoint: median survival time, higher = longer survival
Procedure: The antitumor activity of compounds was measured in mice bearing transplantable tumors. Survival or tumor size were measured and the results are expressed as the measurement made in the treated group (T) divided by the measurement made in the vehicle treated control group (C). The tumor model used in this assay is Ependymoblastoma (intracerebral) in B6C3F1 mice

[1] = dose: 16.0 mg/kg/injection, schedule: Q01DX005 (ip), vehicle: saline
[2] = dose: 32.0 mg/kg/injection, schedule: Q01DX005 (ip), vehicle: saline
[3] = dose: 64.0 mg/kg/injection, schedule: Q01DX005 (ip), vehicle: saline
[4] = dose: 8.0 mg/kg/injection, schedule: Q01DX005 (ip), vehicle: Klucel (hydroxypropylcellulose) (HPC)
[5] = dose: 8.0 mg/kg/injection, schedule: Q01DX005 (ip), vehicle: saline with Tween-80
[6] = dose: 16.0 mg/kg/injection, schedule: Q01DX005 (ip), vehicle: Klucel (hydroxypropylcellulose) (HPC)
[7] = dose: 16.0 mg/kg/injection, schedule: Q01DX005 (ip), vehicle: saline with Tween-80
[8] = dose: 32.0 mg/kg/injection, schedule: Q01DX005 (ip), vehicle: Klucel (hydroxypropylcellulose) (HPC)
[9] = dose: 32.0 mg/kg/injection, schedule: Q01DX005 (ip), vehicle: saline with Tween-80
[10] = dose: 64.0 mg/kg/injection, schedule: Q01DX005 (ip), vehicle: Klucel (hydroxypropylcellulose) (HPC)
[11] = dose: 64.0 mg/kg/injection, schedule: Q01DX005 (ip), vehicle: saline with Tween-80
[12] = dose: 128.0 mg/kg/injection, schedule: Q01DX005 (ip), vehicle: Klucel (hydroxypropylcellulose) (HPC)
[13] = dose: 256.0 mg/kg/injection, schedule: Q01DX005 (ip), vehicle: Klucel (hydroxypropylcellulose) (HPC)
[14] = dose: 512.0 mg/kg/injection, schedule: Q01DX005 (ip), vehicle: Klucel (hydroxypropylcellulose) (HPC)

Measured: T/C

O=C(O)c1ccc(C(=O)O)c(C(=O)O)c1.[NH-]C1CCCCC1[NH-].[Pt+2]
inactive: dose: 0.25 mg/kg/injection, schedule: Q01DX005 (ip), vehicle: dextrose 92 % of control and 101 % of control | dose: 0.5 mg/kg/injection, schedule: Q01DX005 (ip), vehicle: dextrose 100 % of control and 118 % of control | dose: 1.0 mg/kg/injection, schedule: Q01DX005 (ip), vehicle: dextrose 95 % of control and 100 % of control | dose: 2.0 mg/kg/injection, schedule: Q01DX005 (ip), vehicle: dextrose 100 % of control and 105 % of control | dose: 4.0 mg/kg/injection, schedule: Q01DX005 (ip), vehicle: dextrose 98 % of control and 114 % of control

COS(C)(=O)=O
inactive: [1] 118 % of control | [2] 102 % of control | [3] 100 % of control

CCCCCC(=O)O[C@]1(C(C)=O)CC[C@H]2[C@@H]3CCC4=CC(=O)CC[C@]4(C)[C@H]3CC[C@@]21C
inactive: [4] 105 % of control | dose: 8.0 mg/kg/injection, schedule: Q01DX005 (ip), vehicle: saline + alcohol 96 % of control | [5] 95 % of control and 105 % of control | [6] 106 % of control | dose: 16.0 mg/kg/injection, schedule: Q01DX005 (ip), vehicle: saline + alcohol 106 % of control | [7] 115 % of control and 89 % of control | [8] 87 % of control | dose: 32.0 mg/kg/injection, schedule: Q01DX005 (ip), vehicle: saline + alcohol 102 % of control | [9] 98 % of control and 117 % of control | [10] 101 % of control | dose: 64.0 mg/kg/injection, schedule: Q01DX005 (ip), vehicle: saline + alcohol 104 % of control | [11] 99 % of control and 105 % of control | [12] 86 % of control | dose: 128.0 mg/kg/injection, schedule: Q01DX005 (ip), vehicle: saline + alcohol 102 % of control | dose: 128.0 mg/kg/injection, schedule: Q01DX005 (ip), vehicle: saline with Tween-80 104 % of control and 107 % of control | [13] 95 % of control | dose: 256.0 mg/kg/injection, schedule: Q01DX005 (ip), vehicle: saline + alcohol 102 % of control | dose: 256.0 mg/kg/injection, schedule: Q01DX005 (ip), vehicle: saline with Tween-80 98 % of control and 107 % of control | [14] 95 % of control | dose: 512.0 mg/kg/injection, schedule: Q01DX005 (ip), vehicle: saline + alcohol 113 % of control | dose: 512.0 mg/kg/injection, schedule: Q01DX005 (ip), vehicle: saline with Tween-80 95 % of control and 105 % of control

Nc1ccn(C2OC(COC(=O)C34CC5CC(CC(C5)C3)C4)C(O)C2O)c(=O)n1 (stereo unspecified)
inactive: dose: 6.25 mg/kg/injection, schedule: Q01DX005 (ip), vehicle: Klucel (hydroxypropylcellulose) (HPC) 98 % of control and 105 % of control | dose: 12.5 mg/kg/injection, schedule: Q01DX005 (ip), vehicle: Klucel (hydroxypropylcellulose) (HPC) 100 % of control and 105 % of control | dose: 25.0 mg/kg/injection, schedule: Q01DX005 (ip), vehicle: Klucel (hydroxypropylcellulose) (HPC) 104 % of control and 116 % of control | dose: 50.0 mg/kg/injection, schedule: Q01DX005 (ip), vehicle: Klucel (hydroxypropylcellulose) (HPC) 109 % of control

Cc1nc(N)nc(N)c1-c1ccc(Cl)c(Cl)c1
inactive: dose: 1.25 mg/kg/injection, schedule: Q01DX005 (ip), vehicle: saline 106 % of control | dose: 2.5 mg/kg/injection, schedule: Q01DX005 (ip), vehicle: saline 102 % of control | dose: 5.0 mg/kg/injection, schedule: Q01DX005 (ip), vehicle: saline 120 % of control

CNc1nc(N(C)C)nc(N(C)C)n1
inactive: [1] 98 % of control and 111 % of control | [2] 101 % of control | [3] 104 % of control and 115 % of control | dose: 128.0 mg/kg/injection, schedule: Q01DX005 (ip), vehicle: saline 96 % of control and 111 % of control

CS(C)=O
inactive: dose: 500.0 mg/kg/injection, schedule: Q01DX005 (ip), vehicle: water 103 % of control | dose: 1000.0 mg/kg/injection, schedule: Q01DX005 (ip), vehicle: saline 98 % of control | dose: 1000.0 mg/kg/injection, schedule: Q01DX005 (ip), vehicle: water 97 % of control | dose: 2000.0 mg/kg/injection, schedule: Q01DX001 (ip), vehicle: saline 96 % of control and 98 % of control and 100 % of control | dose: 2000.0 mg/kg/injection, schedule: Q01DX005 (ip), vehicle: saline 109 % of control | dose: 2000.0 mg/kg/injection, schedule: Q01DX005 (ip), vehicle: water 103 % of control | dose: 2.0 grams/kg/injection, schedule: Q01DX001 (ip), vehicle: saline 102 % of control | dose: 4000.0 mg/kg/injection, schedule: Q01DX001 (ip), vehicle: saline 91 % of control and 95 % of control and 103 % of control | dose: 4000.0 mg/kg/injection, schedule: Q01DX005 (ip), vehicle: saline 103 % of control | dose: 4000.0 mg/kg/injection, schedule: Q01DX005 (ip), vehicle: water 105 % of control | dose: 4.0 grams/kg/injection, schedule: Q01DX001 (ip), vehicle: saline 95 % of control | dose: 8000.0 mg/kg/injection, schedule: Q01DX001 (ip), vehicle: saline 101 % of control (2×) and 107 % of control | dose: 8000.0 mg/kg/injection, schedule: Q01DX005 (ip), vehicle: saline 103 % of control | dose: 8000.0 mg/kg/injection, schedule: Q01DX005 (ip), vehicle: water 98 % of control | dose: 8.0 grams/kg/injection, schedule: Q01DX001 (ip), vehicle: saline 99 % of control | dose: 16000.0 mg/kg/injection, schedule: Q01DX001 (ip), vehicle: saline 93 % of control

CC(C)NCC(O)COc1cccc2ccccc12 (stereo unspecified)
inactive: dose: 4.0 mg/kg/injection, schedule: Q01DX005 (ip), vehicle: saline with Tween-80 107 % of control | dose: 4.0 mg/kg/injection, schedule: Q01DX009 (ip), vehicle: saline with Tween-80 107 % of control | [5] 101 % of control | dose: 8.0 mg/kg/injection, schedule: Q01DX009 (ip), vehicle: saline with Tween-80 101 % of control | [7] 112 % of control | dose: 16.0 mg/kg/injection, schedule: Q01DX009 (ip), vehicle: saline with Tween-80 115 % of control | [9] 107 % of control | dose: 32.0 mg/kg/injection, schedule: Q01DX009 (ip), vehicle: saline with Tween-80 105 % of control | [11] 107 % of control | dose: 64.0 mg/kg/injection, schedule: Q01DX009 (ip), vehicle: saline with Tween-80 107 % of control

C#C[C@]1(O)CC[C@H]2[C@@H]3CCc4cc(O)ccc4[C@H]3CC[C@@]21C
inactive: [4] 97 % of control and 103 % of control | [6] 98 % of control and 109 % of control | [8] 100 % of control and 106 % of control | [10] 97 % of control and 119 % of control | [12] 104 % of control and 107 % of control | [13] 104 % of control and 124 % of control | [14] 109 % of control and 111 % of control

CN(C)CC(=O)c1ccc(O)c(O)c1
inactive: dose: 100.0 mg/kg/injection, schedule: Q01DX005 (ip), vehicle: saline 100 % of control | dose: 200.0 mg/kg/injection, schedule: Q01DX005 (ip), vehicle: saline 94 % of control | dose: 400.0 mg/kg/injection, schedule: Q01DX005 (ip), vehicle: saline 106 % of control | dose: 800.0 mg/kg/injection, schedule: Q01DX005 (ip), vehicle: saline 108 % of control

O=C(NC1=C(N2CC2)C(=O)C(NC(=O)OCCO)=C(N2CC2)C1=O)OCCO
inactive: dose: 0.18 mg/kg/injection, schedule: Q01DX005 (ip), vehicle: saline 106 % of control | dose: 0.39 mg/kg/injection, schedule: Q01DX005 (ip), vehicle: saline 98 % of control | dose: 0.75 mg/kg/injection, schedule: Q01DX005 (ip), vehicle: saline 102 % of control | dose: 1.5 mg/kg/injection, schedule: Q01DX005 (ip), vehicle: saline 103 % of control and 108 % of control | dose: 3.0 mg/kg/injection, schedule: Q01DX005 (ip), vehicle: saline 96 % of control and 115 % of control | dose: 6.0 mg/kg/injection, schedule: Q01DX005 (ip), vehicle: saline 110 % of control and 113 % of control

Nc1nc(=S)c2ncn(C3OC(COC(=O)c4ccccc4)C(OC(=O)c4ccccc4)C3OC(=O)c3ccccc3)c2[nH]1 (stereo unspecified)
inactive: dose: 12.5 mg/kg/injection, schedule: Q01DX005 (ip), vehicle: saline with Tween-80 100 % of control | dose: 25.0 mg/kg/injection, schedule: Q01DX005 (ip), vehicle: saline with Tween-80 100 % of control | dose: 50.0 mg/kg/injection, schedule: Q01DX005 (ip), vehicle: saline with Tween-80 105 % of control
